# “Also recorded” adds a separate entry of the source.
# What was measured:
# HEK293 cells = assay: Immunoblot for total IRE1 in HEK293 cells overexpressing IRE1 and S1R; assay type: cell-based; settings: 5 μM lactacystin or 30 μM chloroquine, 6 hours
# Description: Western blot. […] Linear level adjustments were applied to entire images to enhance visualization.
# Transfection of proteins for overexpression.
# BMDM = assay: IL-6 ELISA on supernatant of LPS-stimulated BMDM; assay type: cell-based, mouse; settings: 1 μg/mL LPS, 6 hours; for Difference in LPS-induced IL-6 secretion between WT and S1R KO BMDM: 20 μM JSH-23, 20 μM PD98059, 1 μM SP600125, 5 μM 4μ8C; for LPS-induced IL-6 secretion: WT and S1R KO BMDM, 20 μM JSH-23, 20 μM PD98059, 1 μM SP600125
# Protocol: (§1) Tissue culture conditions and Reagents. HEK293 cells, primary lung fibroblasts and BMDM were isolated and maintained as described (41-43). Cells were treated with LPS (Sigma, L4391), 4μ8C (Tocris, 4479), tunicamycin (Tocris, 3516), PD98059 (Medchem Express HY-12028), JSH-23 (Medchem Express, Hy-13982), SP600125 (Medchem Express, HY-12041), cycloheximide (Tocris, 0970), lactacystin (Cayman Chemical, 70980), chloroquine (Fisher, ICN19391925), and STF 083010 (Medchem Express, HY-15845) as described in the text.
# ELISA. ELISA for IL-6 and TNFα were performed as previously described (Remick et al., 2002). Antibodies used were: anti-mouse IL-6 MP5-20F3 (Biolegend, 504501) 0.5 μg/mL; biotin anti-mouse IL-6 MP5-32C11 (Biolegend, 504601) 1 μg/mL; anti-mouse TNFα (R&D systems, AF-410-NA) 0.5 μg/mL; biotin anti-mouse TNFα (R&D systems, BAF410) 0.25 μg/mL.
# Tissue culture conditions and Reagents. HEK293 mTLR4/MD2/CD14 (Invivogen, 293-mtlr4md2cd14), primary lung fibroblasts, and BMDM were isolated and maintained as described (Zhang et al., 2008; Seluanov et al., 2010). Cells and animals were treated with LPS (Sigma, L4391), 4μ8C (Tocris, 4479), APY-29 (Medchem Express HY-17537), PD98059 (Medchem Express HY-12028), JSH-23 (Medchem Express, HY-13982), SP600125 (Medchem Express, HY-12041), STF 083010 (Medchem Express, HY-15845), Fluvoxamine (Medchem Express, HY-B0103A), and Ceftriaxone (Hospira, NDC: 0409-7337-01), as described in the text.
# ELISA. ELISA for IL-6 and TNF-α were performed as previously described (Remick et al., 2002). Antibodies used were: anti-mouse IL-6 MP5-20F3 (Biolegend, 504501) 0.5 μg/mL; biotin anti-mouse IL-6 MP5-32C11 (Biolegend, 504601) 1 μg/mL; anti-mouse TNF-α (R&D systems, AF-410-NA) 0.5 μg/mL; biotin anti-mouse TNF-α (R&D systems, BAF410) 0.25 μg/mL.
# LPS challenged mice = assay: In vivo LPS (endotoxin) challenge; parameters: species or system mouse
# Protocol: Endotoxin challenge. In vivo endotoxin challenge was performed on mice at 8-12 weeks of age. LPS from E. coli 0111:B4 (Sigma-Aldrich, L2630) was injected intraperitoneally as described in the manuscript. STF 083010 (Medchem Express, HY-15845) was resuspended in 33% Kolliphor-EL (Sigma, C5135) and administered intraperitoneally at 30 mg/kg immediately after and again 24 hours after LPS injection.
# Peritoneal contents collection. Three hours after LPS injection, peritoneal cavities were washed with 2.5 mL of ice-cold PBS+5 mM EDTA, and then centrifuged to pellet cells. Supernatants were collected for ELISA, and the remaining cells were washed and stored as previously described (Gaultier et al., 2008).
# LPS challenge. In vivo LPS challenge was performed on adult mice (8-12 weeks of age). LPS from E. coli 0111:B4 (Sigma-Aldrich, L2630) was injected intraperitoneally, as described in the manuscript. STF083010 (Medchem Express, HY-15845) was resuspended in 33% Kolliphor-EL (Sigma, C5135) and administered intraperitoneally at 30 mg/kg immediately after and again 24 hours after LPS injection. Fluvoxamine was resuspended in saline and administered at 20 mg/kg as indicated in the text. Blood for serum ELISA was collected from facial vein at the peak serum concentration of TNF-α and IL-6 (Copeland et al., 2005a).
# Peritoneal exudates collection. Peritoneal cavities content were collected 3 hours after LPS injection in PBS+5 mM EDTA, then centrifuged to pellet cells. Supernatants were collected for ELISA, and cells were washed and stored as previously described (Gaultier et al., 2008).
# FIP sepsis model mice = assay: Fecal induced peritonitis (FIP); assay type: in vivo, mouse; settings: for Survival: 1.5 g/kg fecal slurry
# Protocol: Fecal induced peritonitis (FIP). Fecal material was isolated from the caecum of age- and sex-matched WT animals coming from the UVA vivarium for FIGS. 10A-10D and 10L-10R or from Jackson Laboratory for FIGS. 12D-12O, resuspended in saline and passed through a […] strainer to remove large particles. The slurry was prepared fresh for each experiment. Core body temperature was measured and mice were scored with murine sepsis severity scale by two independent, blinded researchers (Shrum et al., 2014). Blood for serum ELISA was collected from facial vein at 3 hours post FIP induction. Where indicated, fluvoxamine in saline was administered intraperitoneally at a dose of 20 mg/kg, and ceftriaxone in saline was given at a dose of 100 mg/kg subcutaneously.
# [1] = target: T1, IRE1 endonuclease activity (Mus musculus, UniProt Q9EQY0); assay: XBP1 splicing ratio by qPCR in BMDM; assay type: cell-based
# T1 construct: We prepared bone marrow derived macrophages (BMDM) from WT and S1R KO mice; endogenous in cells; host or cells: primary mouse bone marrow derived macrophages (WT and S1R KO, C57BL/6J background)
# Protocol: as §1
# cDNA synthesis and quantitative RT-PCR. Total RNA was extracted using an ISOLATE II RNA (Bioline, 52073) and cDNA synthesis was performed with the ISCRIPT™ kit (Bio-Rad, 170-8891). TaqMan Probes were obtained from Life Technologies (GAPDH: Mm99999915_g1; IL-6: Mm00446190_m1; pro-IL-1β: Mm00434228_m1; TNFα: Mm00443258_m1). Primers for IRE1 detection were GCACGUGAAUUGAUAGAGA (SEQ ID NO: 10) and UCUCUAUCAAUUCACGUGC (SEQ ID NO: 11). Primers for the detection of XBP1 were previously published (Lipson et al., 2008). RT-PCR was performed as described previously (Gaultier et al., 2009).
# cDNA synthesis and quantitative PCR. Total RNA was extracted using an ISOLATE II RNA kit (Bioline, 52073) and cDNA synthesis was performed with the SENSIFAST™ cDNA synthesis kit (Bioline, BIO-65054). TaqMan Probes were obtained from Thermo Fisher (GAPDH: Mm99999915_g1; IL-6: Mm00446190_m1; pro-IL-1β: Mm00434228_m1; IL10: Mm004396). Primers for the detection of XBP1, IL-8, and actin were previously published (Vandesompele et al., 2002; Kumar & Valdivia, 2008; Girard et al., 2009). qPCR was performed as described previously (Gaultier et al., 2008).
# [2] = test system: heparinized peripheral blood from healthy donors; assay: Human whole blood stimulation ex vivo with LPS, multiplex cytokine analysis; assay type: cell-based; settings: 10 ng/mL LPS, 20 μM fluvoxamine, 4 hours
# Protocol: Human whole blood stimulation. Study participants were healthy adults (ages 18-45). The study was approved by the Institutional Review Board at the University of Virginia, and all participants signed informed consent before enrollment. Blood was collected into heparinized vacuum tube, then stimulated with 10 ng/mL LPS+/−20 μM fluvoxamine for 4 hours, as described (Thurm & Halsey, 2005). Cytokine concentrations were determined by multiplex analysis.
# sigma-1 receptor = sigma-1 receptor (Homo sapiens, UniProt Q99720); settings: cited from earlier work
# [3] = LPS 2 mg/kg co-administered with STF 30 mg/kg
# [4] = LPS 2 mg/kg, STF 30 mg/kg i.p. at 0 hours and 24 hours
# [5] = treatment 90 min post FIP induction, fluvoxamine 20 mg/kg i.p. and/or ceftriaxone 100 mg/kg s.c.
# [6] = LPS 6 mg/kg, fluvoxamine 20 mg/kg at the same time as LPS
# T1 sequence (Q9EQY0 21-977): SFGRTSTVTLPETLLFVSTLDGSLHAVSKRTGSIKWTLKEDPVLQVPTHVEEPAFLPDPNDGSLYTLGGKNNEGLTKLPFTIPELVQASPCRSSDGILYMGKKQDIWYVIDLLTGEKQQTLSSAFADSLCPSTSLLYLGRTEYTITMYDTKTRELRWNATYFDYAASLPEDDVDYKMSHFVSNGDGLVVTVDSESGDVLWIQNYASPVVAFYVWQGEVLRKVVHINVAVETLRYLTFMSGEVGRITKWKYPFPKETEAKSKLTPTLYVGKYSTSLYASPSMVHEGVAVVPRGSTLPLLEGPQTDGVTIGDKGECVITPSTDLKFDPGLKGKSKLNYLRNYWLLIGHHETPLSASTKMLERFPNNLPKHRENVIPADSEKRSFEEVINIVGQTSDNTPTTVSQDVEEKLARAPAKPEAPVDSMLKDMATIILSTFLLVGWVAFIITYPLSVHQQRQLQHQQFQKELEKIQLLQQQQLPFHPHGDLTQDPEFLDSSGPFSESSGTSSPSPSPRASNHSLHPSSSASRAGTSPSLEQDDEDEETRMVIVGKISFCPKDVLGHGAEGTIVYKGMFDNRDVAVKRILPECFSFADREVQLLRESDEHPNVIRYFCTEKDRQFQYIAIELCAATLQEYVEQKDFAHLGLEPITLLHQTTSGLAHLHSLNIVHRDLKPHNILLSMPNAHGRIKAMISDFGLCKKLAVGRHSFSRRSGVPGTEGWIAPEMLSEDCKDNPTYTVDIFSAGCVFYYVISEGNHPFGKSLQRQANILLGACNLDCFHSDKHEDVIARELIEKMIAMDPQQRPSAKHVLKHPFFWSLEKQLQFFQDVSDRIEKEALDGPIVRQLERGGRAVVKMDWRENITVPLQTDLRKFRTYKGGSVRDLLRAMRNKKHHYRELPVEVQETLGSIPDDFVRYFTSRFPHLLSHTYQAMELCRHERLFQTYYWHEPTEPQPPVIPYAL
# sigma-1 receptor, sequence (Q99720 whole entry): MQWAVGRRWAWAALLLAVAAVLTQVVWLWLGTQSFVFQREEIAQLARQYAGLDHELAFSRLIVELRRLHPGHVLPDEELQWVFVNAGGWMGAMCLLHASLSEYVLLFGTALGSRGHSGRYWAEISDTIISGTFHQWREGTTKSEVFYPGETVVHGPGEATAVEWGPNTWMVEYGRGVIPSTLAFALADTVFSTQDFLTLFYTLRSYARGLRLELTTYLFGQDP
compound,measurement,setting,value
CC(=O)N[C@@H](CSC(=O)[C@]1([C@@H](O)C(C)C)NC(=O)[C@H](C)[C@@H]1O)C(=O)O [lactacystin],Rescue of IRE1 protein levels in the presence of S1R overexpression,HEK293 cells,Neither lactacystin nor chloroquine treatment could rescue IRE1 protein levels
COc1cccc(-c2cc(=O)c3ccccc3o2)c1N [PRESENTLY DISCLOSED 98059],Difference in LPS-induced IL-6 secretion between WT and S1R KO BMDM,BMDM,without altering the ability of S1R KO BMDM to produce more IL-6
same,LPS-induced IL-6 secretion,BMDM,significant decrease in IL-6 production
Cc1ccc(NCCCc2ccccc2)c(N)c1 [JSH-23],Difference in LPS-induced IL-6 secretion between WT and S1R KO BMDM,BMDM,did not eliminate the difference
same,LPS-induced IL-6 secretion,BMDM,reduced LPS-induced IL-6 secretion
"O=S(=O)(N=Cc1c(O)ccc2ccccc12)c1cccs1 [STF, N-[(2-Hydroxy-1-naphthalenyl)methylene]-2-thiophenesulfonamide]",Blocking IL-6 secretion in S1R KO BMDM stimulated with LPS,"BMDM; STF 083010 (60 μM) compared with 4μ8C (5 μM), FIG. 7A",as effective as 4μ8C
same,"IRE1 inhibitor effectiveness (IL-6 ELISA, FIG. 11C)","BMDM; BMDM, 20 μM STF",effective IRE1 inhibitor
same,Median survival of S1R KO mice,LPS challenged mice; [3],113 h
same,Mortality of S1R KO mice,LPS challenged mice; [3],62.5%
same,LPS induced mortality / survival of S1R KO mice,LPS challenged mice; [4],largely rescued; also recorded: spared KO mice from LPS induced mortality; also recorded: clear benefit in S1R KO survival
same,Survival of WT mice,LPS challenged mice; [4],did not significantly affect the survival of WT mice
same,Serum IL-6,"LPS challenged mice; S1R KO mice, LPS 2 mg/kg, STF 30 mg/kg i.p., serum 3 hours after LPS",significantly decreased serum IL-6; also recorded: trend toward decreased IL-6
same,IL-6 in the peritoneal exudate,"LPS challenged mice; S1R KO mice, LPS 2 mg/kg, STF 30 mg/kg, 3 hours after LPS",corrected by STF treatment
CO/N=C(\C(=O)N[C@@H]1C(=O)N2C(C(=O)O)=C(CSc3nc(=O)c(=O)[nH]n3C)CS[C@H]12)c1csc(N)n1 [Ceftriaxone],Survival,FIP sepsis model mice; [5],enhancing survival
c1cc(Nc2cc(C3CC3)[nH]n2)nc(Nc2ccc3nc[nH]c3c2)n1 [APY29],XBP1 splicing amounts after forced IRE1 activation,"[1]; WT vs S1R KO BMDM, activator of IRE1, 6 hours",equal in both genotypes
CCN(CC)CCCC(C)Nc1ccnc2cc(Cl)ccc12 (stereo not shown) [chloroquine],Rescue of IRE1 protein levels in the presence of S1R overexpression,HEK293 cells,Neither lactacystin nor chloroquine treatment could rescue IRE1 protein levels
tunicamycin,XBP1 splicing after tunicamycin,"[1]; S1R KO vs WT BMDM, 5 μM tunicamycin, 6 hours",elevated XBP1 splicing in S1R KO BMDM
COCCCC/C(=N\OCCN)c1ccc(C(F)(F)F)cc1 [fluvoxamine],Rectal temperature,"LPS challenged mice; C57BL/6J, 24 hours after LPS, fluvoxamine 90 min post LPS challenge",improved
same,Clinical score (total murine sepsis score),"LPS challenged mice; C57BL/6J, LPS 6 mg/kg, fluvoxamine 90 min post LPS challenge",improved
same,Survival,"LPS challenged mice; C57BL/6J, LPS 6 mg/kg, therapeutic fluvoxamine 90 min post LPS challenge",significantly enhanced survival
same,Mortality of S1R KO animals,LPS challenged mice; [6],no significant effect
same,Mortality of WT mice,LPS challenged mice; [6],significantly protected WT mice from mortality
same,Serum IL-6 in S1R KO animals,LPS challenged mice; [6],no significant effect
same,Serum IL-6 in WT mice,"LPS challenged mice; LPS 6 mg/kg, fluvoxamine 20 mg/kg at the same time as LPS, 3 hours after LPS",reduced serum IL-6
same,Survival,FIP sepsis model mice; therapeutic fluvoxamine 30 min post FIP induction,significantly enhanced survival
same,Survival,FIP sepsis model mice; [5],as efficacious in enhancing survival as Ceftriaxone
same,Rectal temperature,"FIP sepsis model mice; C57BL/6J, 24 hours after FIP induction, fluvoxamine 30 min post FIP induction",improved
same,Clinical score (total murine sepsis score),"FIP sepsis model mice; C57BL/6J, fluvoxamine 30 min post FIP induction",improved
same,Breadth of modulation of inflammatory mediators (FIG. 14),[2],limited to a subset of inflammatory mediators
same,IL-8 production,[2],decreased
same,LPS-induced IL-1β,[2],significantly reduced
same,LPS-induced IL-6,[2],significantly reduced
same,LPS-induced IL-12 p40,[2],significantly reduced
same,Affinity for / binding to sigma-1 receptor (S1R),sigma-1 receptor,low-nanomolar affinity; also recorded: high affinity
